Test results from PubChem BioAssay (NCI).
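Tested at 5 concentrations; 48 h exposure; 96-well plates; endpoints linearly interpolated, else capped at highest concentration. The concentration for full growth arrest is given as TGI.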

Legend:
Test in all cases: NCI-60 cell line screen, 48 h
[1] = tested on: K-562 leukemia
[2] = tested on: CCRF-CEM leukemia
[3] = tested on: HT29 colon
[4] = tested on: U251 CNS
[5] = tested on: A549 NSCLC
[6] = tested on: SNB-75 CNS
[7] = tested on: HCT-116 colon
[8] = tested on: DU-145 prostate
[9] = tested on: SF-295 CNS
[10] = tested on: NCI-H460 lung
[11] = tested on: MDA-MB-435
[12] = tested on: UACC-62 melanoma
[13] = tested on: EKVX NSCLC
[14] = tested on: M14 melanoma
[15] = tested on: OVCAR-5 ovarian
[16] = tested on: ACHN renal
[17] = tested on: NCI/ADR-RES ovarian
[18] = tested on: SNB-19 CNS
[19] = tested on: KM12 colon
[20] = tested on: MOLT-4 leukemia
[21] = tested on: SK-MEL-28 melanoma
[22] = tested on: LOX IMVI melanoma
[23] = tested on: SK-MEL-2 melanoma
[24] = tested on: PC-3 prostate
[25] = tested on: SK-OV-3 ovarian
[26] = tested on: MALME-3M melanoma
[27] = tested on: UO-31 renal
[28] = tested on: OVCAR-8 ovarian
[29] = tested on: SN12C renal
[30] = tested on: TK-10 renal
[31] = tested on: OVCAR-4 ovarian
[32] = tested on: COLO 205 colon
[33] = tested on: 786-0 renal
[34] = tested on: SR leukemia
[35] = tested on: RPMI-8226 leukemia
[36] = tested on: MCF7 breast
[37] = tested on: UACC-257 melanoma
[38] = tested on: HOP-92 NSCLC
[39] = tested on: MDA-N
[40] = tested on: NCI-H23 lung
[41] = tested on: NCI-H522 lung
[42] = tested on: HS 578T breast
[43] = tested on: SW-620 colon
[44] = tested on: HOP-62 NSCLC
[45] = tested on: HL-60(TB) leukemia
[46] = tested on: SF-268 CNS
[47] = tested on: CAKI-1 renal
[48] = tested on: OVCAR-3 ovarian
[49] = tested on: IGROV1 ovarian
[50] = tested on: NCI-H226 lung
[51] = tested on: SK-MEL-5 melanoma
[52] = tested on: HCT-15 colon
[53] = tested on: BT-549 breast
[54] = tested on: MDA-MB-231 breast
[55] = tested on: A498 renal

CC(=O)Oc1c(C)cc(-c2cc(C)c(OC(C)=O)c(C)c2)cc1C
TGI [1]: > 100 µM | TGI [2]: > 100 µM | TGI [3]: > 100 µM | TGI [4]: 39.5 µM | TGI [5]: > 100 µM | TGI [6]: 60.9 µM | TGI [7]: > 100 µM | TGI [8]: > 100 µM | TGI [9]: 93.8 µM | TGI [10]: > 100 µM | TGI [11]: 10.8 µM | TGI [12]: > 100 µM | TGI [13]: > 100 µM | TGI [14]: > 100 µM | TGI [15]: > 100 µM | TGI [16]: > 100 µM | TGI [17]: > 100 µM | TGI [18]: > 100 µM | TGI [19]: > 100 µM | TGI [20]: > 100 µM | TGI [21]: > 100 µM | TGI [22]: > 100 µM | TGI [23]: > 100 µM | TGI [24]: > 100 µM | TGI [25]: 38.4 µM | TGI [26]: > 100 µM | TGI [27]: 84.6 µM | TGI [28]: > 100 µM | TGI [29]: > 100 µM | TGI [30]: 91.6 µM | TGI [31]: > 100 µM | TGI [32]: > 100 µM | TGI [33]: > 100 µM | TGI [34]: > 100 µM | TGI [35]: > 100 µM | TGI [36]: > 100 µM | TGI [37]: > 100 µM | TGI [38]: > 100 µM | TGI [39]: 25.6 µM | TGI [40]: 42.8 µM | TGI [41]: 98.2 µM | TGI [42]: 60.1 µM | TGI [43]: > 100 µM | TGI [44]: > 100 µM | TGI [45]: > 100 µM | TGI [46]: > 100 µM | TGI [47]: > 100 µM | TGI [48]: > 100 µM | TGI [49]: > 100 µM | TGI [50]: 94.4 µM | TGI [51]: > 100 µM | TGI [52]: > 100 µM | TGI [53]: > 100 µM

NCC(O)CNCC/C=C\C/C=C\C/C=C\C/C=C\C/C=C\C/C=C\CCCCC/C=C\CCNCC(O)CN (centres undefined)
TGI [1]: > 100 µM | TGI [6]: 3.2 µM | TGI [54]: 3.18 µM | TGI [7]: 3.18 µM | TGI [8]: 3.26 µM | TGI [9]: 4.29 µM | TGI [13]: 2.15 µM | TGI [15]: 3.41 µM | TGI [16]: 3.35 µM | TGI [17]: 2.82 µM | TGI [21]: 14 µM | TGI [24]: 3.49 µM | TGI [55]: 3.34 µM | TGI [25]: 5.59 µM | TGI [26]: 4.34 µM | TGI [27]: 3.72 µM | TGI [28]: 3.21 µM | TGI [29]: 3.03 µM | TGI [30]: 2.96 µM | TGI [31]: 3.61 µM | TGI [32]: 3.41 µM | TGI [33]: 3.07 µM | TGI [37]: 4.43 µM | TGI [39]: 3.09 µM | TGI [42]: 2.74 µM | TGI [44]: 3.53 µM | TGI [47]: 3.63 µM | TGI [48]: 3.42 µM | TGI [50]: 13.4 µM | TGI [52]: 3.03 µM | TGI [53]: 7.47 µM
